ChEMBL document CHEMBL1201862, “PubChem BioAssay data set” (2004)
Activity calls are given as the source filed them.

Key:
[1] = target: T1, Replicative DNA helicase DnaB (Mycobacterium tuberculosis, UniProt P9WMR3); test: DnaB intein splicing inhibitors, dose response, biochemical, cell-free fluorescence (AID 449749); type: functional
T1 sequence (P9WMR3 whole entry): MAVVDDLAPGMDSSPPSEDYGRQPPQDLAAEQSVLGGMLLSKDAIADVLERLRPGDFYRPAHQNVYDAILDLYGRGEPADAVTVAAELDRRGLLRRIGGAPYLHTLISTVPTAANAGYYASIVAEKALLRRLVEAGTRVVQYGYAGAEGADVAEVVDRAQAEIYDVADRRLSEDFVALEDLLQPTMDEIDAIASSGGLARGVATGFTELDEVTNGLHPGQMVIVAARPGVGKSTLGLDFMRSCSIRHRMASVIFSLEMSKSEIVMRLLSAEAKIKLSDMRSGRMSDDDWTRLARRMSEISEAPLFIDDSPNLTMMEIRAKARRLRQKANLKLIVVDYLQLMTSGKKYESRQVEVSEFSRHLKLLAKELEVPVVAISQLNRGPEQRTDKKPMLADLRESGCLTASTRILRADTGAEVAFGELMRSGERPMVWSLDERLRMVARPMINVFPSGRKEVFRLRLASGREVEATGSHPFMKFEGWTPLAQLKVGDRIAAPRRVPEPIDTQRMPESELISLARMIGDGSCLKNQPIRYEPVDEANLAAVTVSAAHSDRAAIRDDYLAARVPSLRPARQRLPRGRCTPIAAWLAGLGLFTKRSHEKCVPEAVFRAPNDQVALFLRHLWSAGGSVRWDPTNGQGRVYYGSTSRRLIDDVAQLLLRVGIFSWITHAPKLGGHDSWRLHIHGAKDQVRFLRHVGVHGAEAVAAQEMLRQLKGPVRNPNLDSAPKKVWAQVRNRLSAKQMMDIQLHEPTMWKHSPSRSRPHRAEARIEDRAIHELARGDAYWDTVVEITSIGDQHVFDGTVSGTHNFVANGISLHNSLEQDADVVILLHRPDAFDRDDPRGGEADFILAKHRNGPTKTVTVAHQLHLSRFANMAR

SUMO-activating enzyme = SUMO-activating enzyme (Homo sapiens, UniProt Q9UBT2); test: inhibitors of in vitro SUMOylation cascade, primary screen, biochemical, HTRF, uHTS (AID 2006); type: protein-complex assay
PglD = PglD (Campylobacter jejuni, UniProt O86157); test: PglD acetyltransferase inhibitors, dose response, biochemical, DTNB absorbance, cherry-picked samples, set 2 (AID 624257); type: functional
[2] = target: Serine/threonine-protein kinase MRCK alpha (Homo sapiens, UniProt Q5VT25); type: functional
[3] = target: Protein kinase C zeta type (Homo sapiens, UniProt Q05513); type: functional;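 note: measured as one member of a broad kinase profiling panel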
[4] = target: Inhibitor of nuclear factor kappa-B kinase subunit alpha (Homo sapiens, UniProt O15111); type: functional
[5] = target: Tyrosine-protein kinase Lck (Homo sapiens, UniProt P06239); type: functional;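 note: lck was assayed as one member of a kinase panel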
[6] = target: Calcium/calmodulin-dependent protein kinase type II subunit delta (Homo sapiens, UniProt Q13557); type: functional
Misshapen-like kinase 1 = Misshapen-like kinase 1 (Homo sapiens, UniProt Q8N4C8); type: functional;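 note: kinome panel screen with MINK as the panel member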
[7] = target: Serine/threonine-protein kinase 17A (Homo sapiens, UniProt Q9UEE5); type: functional
[8] = target: cGMP-dependent protein kinase 1 (Homo sapiens, UniProt Q13976); type: functional;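 note: value from a kinome panel screen with PRKG1 as the panel member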
[9] = target: Homeodomain-interacting protein kinase 4 (Homo sapiens, UniProt Q8NE63); type: functional
[10] = target: MAP kinase-interacting serine/threonine-protein kinase 2 (Homo sapiens, UniProt Q9HBH9); type: functional
[11] = target: Tyrosine-protein kinase receptor TYRO3 (Homo sapiens, UniProt Q06418); type: functional;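 note: TYRO3 value obtained as one member of a kinome-wide profiling panel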
[12] = target: Proto-oncogene tyrosine-protein kinase ROS (Homo sapiens, UniProt P08922); type: functional;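 note: ROS1 tested as one member of a kinome-wide kinase panel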
[13] = target: Casein kinase I isoform alpha (Homo sapiens, UniProt P48729); type: functional
[14] = target: Ribosomal protein S6 kinase alpha-5 (Homo sapiens, UniProt O75582); type: functional

SUMO-activating enzyme, sequence (Q9UBE0 whole entry): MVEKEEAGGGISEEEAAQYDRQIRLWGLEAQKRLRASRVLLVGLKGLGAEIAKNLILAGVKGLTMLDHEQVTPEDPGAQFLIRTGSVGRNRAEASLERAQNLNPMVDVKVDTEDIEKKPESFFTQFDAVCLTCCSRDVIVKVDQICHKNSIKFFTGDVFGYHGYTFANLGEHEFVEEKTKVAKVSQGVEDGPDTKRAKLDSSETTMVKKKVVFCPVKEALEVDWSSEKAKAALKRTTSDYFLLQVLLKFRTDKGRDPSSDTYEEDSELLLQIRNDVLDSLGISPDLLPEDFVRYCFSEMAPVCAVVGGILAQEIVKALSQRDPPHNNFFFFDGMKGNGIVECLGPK
SUMO-activating enzyme, sequence (Q9UBT2 whole entry): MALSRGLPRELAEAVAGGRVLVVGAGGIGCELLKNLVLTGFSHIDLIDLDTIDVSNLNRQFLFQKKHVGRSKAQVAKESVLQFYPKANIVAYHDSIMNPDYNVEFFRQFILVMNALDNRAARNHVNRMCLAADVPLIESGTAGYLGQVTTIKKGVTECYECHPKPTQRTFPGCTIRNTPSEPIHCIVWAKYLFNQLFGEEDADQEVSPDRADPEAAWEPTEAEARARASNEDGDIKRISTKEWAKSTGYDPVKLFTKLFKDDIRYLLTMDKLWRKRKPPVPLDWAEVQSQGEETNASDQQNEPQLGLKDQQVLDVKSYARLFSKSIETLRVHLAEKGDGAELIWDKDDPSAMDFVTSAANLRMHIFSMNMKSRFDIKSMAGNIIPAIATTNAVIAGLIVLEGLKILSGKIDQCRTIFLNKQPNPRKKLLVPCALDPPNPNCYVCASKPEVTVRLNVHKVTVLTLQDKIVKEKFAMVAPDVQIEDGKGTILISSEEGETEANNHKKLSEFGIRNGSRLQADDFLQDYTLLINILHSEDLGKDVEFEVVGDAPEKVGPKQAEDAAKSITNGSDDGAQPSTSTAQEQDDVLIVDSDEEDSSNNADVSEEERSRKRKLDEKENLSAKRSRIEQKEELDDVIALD
PglD, sequence (O86157 whole entry): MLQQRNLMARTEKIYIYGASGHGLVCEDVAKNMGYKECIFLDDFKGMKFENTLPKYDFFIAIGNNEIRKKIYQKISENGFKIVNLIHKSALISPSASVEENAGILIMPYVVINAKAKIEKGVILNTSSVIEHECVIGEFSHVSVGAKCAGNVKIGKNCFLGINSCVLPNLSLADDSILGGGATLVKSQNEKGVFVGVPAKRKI
Proto-oncogene tyrosine-protein kinase ROS, sequence (P08922 whole entry, canonical isoform): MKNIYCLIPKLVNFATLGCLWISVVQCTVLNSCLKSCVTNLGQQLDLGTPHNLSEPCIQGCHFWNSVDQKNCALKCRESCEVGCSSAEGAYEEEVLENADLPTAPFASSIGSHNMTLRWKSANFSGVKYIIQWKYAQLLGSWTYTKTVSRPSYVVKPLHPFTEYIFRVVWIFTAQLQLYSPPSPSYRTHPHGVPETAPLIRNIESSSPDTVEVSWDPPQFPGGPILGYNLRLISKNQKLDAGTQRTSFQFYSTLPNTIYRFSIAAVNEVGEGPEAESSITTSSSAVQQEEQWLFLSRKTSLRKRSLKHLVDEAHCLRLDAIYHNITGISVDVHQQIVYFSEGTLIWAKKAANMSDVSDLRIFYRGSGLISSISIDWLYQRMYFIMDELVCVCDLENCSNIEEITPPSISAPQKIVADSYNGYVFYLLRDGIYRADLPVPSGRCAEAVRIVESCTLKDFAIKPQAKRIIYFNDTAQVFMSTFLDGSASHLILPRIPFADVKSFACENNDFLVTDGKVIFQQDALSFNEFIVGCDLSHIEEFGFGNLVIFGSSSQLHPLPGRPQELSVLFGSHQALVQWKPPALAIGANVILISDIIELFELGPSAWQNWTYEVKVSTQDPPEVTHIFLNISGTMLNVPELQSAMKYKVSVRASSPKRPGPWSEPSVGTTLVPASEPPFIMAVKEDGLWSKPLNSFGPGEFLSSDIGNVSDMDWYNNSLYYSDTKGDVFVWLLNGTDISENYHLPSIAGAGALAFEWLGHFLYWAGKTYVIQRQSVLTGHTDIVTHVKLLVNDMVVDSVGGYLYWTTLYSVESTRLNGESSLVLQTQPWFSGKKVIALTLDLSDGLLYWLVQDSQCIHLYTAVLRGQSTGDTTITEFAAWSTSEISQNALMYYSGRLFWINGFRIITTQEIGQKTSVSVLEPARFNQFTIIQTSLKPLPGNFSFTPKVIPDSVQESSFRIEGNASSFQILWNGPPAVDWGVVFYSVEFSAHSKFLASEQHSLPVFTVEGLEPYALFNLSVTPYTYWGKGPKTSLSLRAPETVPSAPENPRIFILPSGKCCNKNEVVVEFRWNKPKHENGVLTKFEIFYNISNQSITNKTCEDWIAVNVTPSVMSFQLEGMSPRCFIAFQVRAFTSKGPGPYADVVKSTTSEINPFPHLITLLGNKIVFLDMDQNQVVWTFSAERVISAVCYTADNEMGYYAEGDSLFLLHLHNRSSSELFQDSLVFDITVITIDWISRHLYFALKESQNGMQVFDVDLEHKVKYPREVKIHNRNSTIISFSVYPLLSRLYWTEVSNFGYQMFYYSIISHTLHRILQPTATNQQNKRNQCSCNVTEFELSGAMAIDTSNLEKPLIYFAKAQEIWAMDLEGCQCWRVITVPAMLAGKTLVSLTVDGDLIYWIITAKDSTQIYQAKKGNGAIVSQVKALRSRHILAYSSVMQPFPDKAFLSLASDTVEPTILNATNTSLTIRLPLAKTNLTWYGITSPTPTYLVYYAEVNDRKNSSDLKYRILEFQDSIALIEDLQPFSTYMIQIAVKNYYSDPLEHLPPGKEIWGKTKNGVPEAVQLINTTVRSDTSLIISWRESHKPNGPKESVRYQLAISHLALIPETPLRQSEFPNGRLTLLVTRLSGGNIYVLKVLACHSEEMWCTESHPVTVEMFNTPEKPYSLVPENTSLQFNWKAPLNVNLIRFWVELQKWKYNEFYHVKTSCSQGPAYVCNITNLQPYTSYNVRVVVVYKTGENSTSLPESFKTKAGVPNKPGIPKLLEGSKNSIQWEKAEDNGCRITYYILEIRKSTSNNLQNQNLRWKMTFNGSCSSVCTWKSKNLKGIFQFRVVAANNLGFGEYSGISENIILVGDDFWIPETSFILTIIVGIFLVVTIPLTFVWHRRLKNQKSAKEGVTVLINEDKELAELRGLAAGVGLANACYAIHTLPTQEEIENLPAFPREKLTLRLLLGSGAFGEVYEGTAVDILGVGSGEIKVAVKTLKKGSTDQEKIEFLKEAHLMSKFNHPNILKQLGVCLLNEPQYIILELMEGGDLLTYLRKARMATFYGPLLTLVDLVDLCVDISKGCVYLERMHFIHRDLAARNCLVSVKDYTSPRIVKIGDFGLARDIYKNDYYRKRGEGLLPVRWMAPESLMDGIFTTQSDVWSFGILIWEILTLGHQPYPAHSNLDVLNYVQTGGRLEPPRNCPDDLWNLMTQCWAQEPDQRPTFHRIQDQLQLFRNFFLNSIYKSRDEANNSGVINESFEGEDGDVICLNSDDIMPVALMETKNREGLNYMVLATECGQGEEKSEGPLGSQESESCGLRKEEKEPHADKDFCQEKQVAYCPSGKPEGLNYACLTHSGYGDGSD
Protein kinase C zeta type, sequence (Q05513 whole entry): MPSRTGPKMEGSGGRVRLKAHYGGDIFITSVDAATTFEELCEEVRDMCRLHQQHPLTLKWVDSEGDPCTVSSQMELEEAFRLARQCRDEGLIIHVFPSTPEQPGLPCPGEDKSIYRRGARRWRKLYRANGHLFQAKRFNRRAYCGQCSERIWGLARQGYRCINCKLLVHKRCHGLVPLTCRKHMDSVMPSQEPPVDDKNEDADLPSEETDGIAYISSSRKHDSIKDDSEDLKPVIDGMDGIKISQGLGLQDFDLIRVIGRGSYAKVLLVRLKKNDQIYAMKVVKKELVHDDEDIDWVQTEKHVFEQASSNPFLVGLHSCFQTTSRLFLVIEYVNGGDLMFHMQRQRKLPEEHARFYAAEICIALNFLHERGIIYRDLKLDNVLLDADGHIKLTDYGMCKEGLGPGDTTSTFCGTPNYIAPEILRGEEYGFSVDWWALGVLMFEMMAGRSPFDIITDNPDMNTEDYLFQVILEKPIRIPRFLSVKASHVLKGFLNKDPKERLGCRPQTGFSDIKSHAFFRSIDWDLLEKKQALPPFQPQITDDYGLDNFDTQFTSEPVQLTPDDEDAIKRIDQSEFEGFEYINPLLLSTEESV
Inhibitor of nuclear factor kappa-B kinase subunit alpha, sequence (O15111 whole entry): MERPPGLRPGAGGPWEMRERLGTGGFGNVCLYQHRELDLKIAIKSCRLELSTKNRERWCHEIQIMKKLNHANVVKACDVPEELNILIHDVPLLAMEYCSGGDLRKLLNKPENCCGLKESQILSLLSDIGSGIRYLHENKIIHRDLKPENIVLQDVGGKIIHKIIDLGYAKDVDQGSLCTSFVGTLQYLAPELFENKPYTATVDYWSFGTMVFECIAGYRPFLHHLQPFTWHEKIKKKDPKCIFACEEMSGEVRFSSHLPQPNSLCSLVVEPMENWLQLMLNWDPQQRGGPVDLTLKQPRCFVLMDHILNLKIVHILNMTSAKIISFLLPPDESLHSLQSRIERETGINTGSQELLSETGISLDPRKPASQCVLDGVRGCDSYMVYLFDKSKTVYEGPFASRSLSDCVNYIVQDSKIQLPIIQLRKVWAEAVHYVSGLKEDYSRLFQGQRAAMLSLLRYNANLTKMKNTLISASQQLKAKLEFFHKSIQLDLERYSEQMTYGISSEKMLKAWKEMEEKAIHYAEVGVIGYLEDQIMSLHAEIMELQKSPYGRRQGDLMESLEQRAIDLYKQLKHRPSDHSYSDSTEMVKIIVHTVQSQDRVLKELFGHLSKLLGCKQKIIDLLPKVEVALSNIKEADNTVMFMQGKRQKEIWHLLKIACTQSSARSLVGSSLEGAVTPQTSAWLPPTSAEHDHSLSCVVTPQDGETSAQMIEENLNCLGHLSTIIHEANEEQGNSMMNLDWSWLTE

For `CC(=O)NC1C(=O)N(CCN2CCOCC2)c2ccc(Cl)cc21` (configuration not stated), the AC50 [1] was 16600 nM (active), the IC50 (SUMO-activating enzyme) was 13400 nM (active) and the AC50 (PglD) was 17500 nM (active).

For `Cc1c(C=O)c(O)n2c(nc3ccccc32)c1C#N`, the Ki [2] was > 10000 nM (inactive), the Ki [3] was > 7940 nM (inactive) and the Ki [4] was > 3980 nM (inactive). For the same compound, the Ki [5] was > 2510 nM (inactive).

In the case of `Cc1n[nH]c2cnc(-c3cncc(OCC(N)Cc4cccc(C(F)(F)F)c4)c3)cc12` (configuration not stated), the Ki [6] is reported as 5.01 nM (active), the Ki (Misshapen-like kinase 1) is reported as 3.98 nM (active) and the Ki [7] is reported as 501 nM (active). For the same compound, the Ki [8] was 15.8 nM (active), the Ki [9] was 25.1 nM (active) and the Ki [10] was 631 nM (active). The Ki [11] was 2000 nM (active), the Ki [12] was 398 nM (active) and the Ki [13] was 2510 nM (active). The Ki [14] was 79.4 nM (active).
